{"source": "patent US20060183778A1", "about": "“Osteogenesis-promotion enhancer and method of screening the same” (priority 2003, published 2006)", "assay_type_in_all_cases": "cell-based", "key": {"C2C12 cells [1]": {"tested_on": "C2C12 cells", "experiment": "Test Example 4: influence of serum (FBS) concentration on ALP activity of C2C12 cells", "settings": "compound A 1 μM, rhBMP-4 50 ng/ml, FBS 2.5%, 5%, 10% or 20%, 9 days", "experimental": "After the respective cells were cultured for 9 days, a degree of progression of bone differentiation was examined by staining with an alkaline phosphatase (ALP) staining kit #85-3R (Sigma). […] Regarding the respective cells, the ALP activity was measured in the same manner as in Test Example 1."}, "[2]": {"tested_on": "Human mesenchymal stem cells (hMSCs)", "experiment": "Test Example 2: calcium accumulation of human mesenchymal stem cells by the von Kossa method", "settings": "serum-free medium, compound A 1 μM with rhBMP-4 50 ng/ml", "experimental": "(§1) Quantitative analysis of an ALP activity was conducted in the same manner as in Test Example 1. Accumulation of calcium was measured through visualization by the von Kossa method. That is, the respective cells were immobilized with a phosphate buffered saline (PBS) containing 3% glutaraldehyde, and washed with PBS and with distilled water. The immobilized cells were reacted with 2.5% silver nitrate for 60 minutes while applying light, then washed, and developed with 0.5% hydroquinone for 2 minutes. Excess silver was washed away with a 5% sodium thiosulfate solution."}, "C2C12 cells [3]": {"tested_on": "C2C12 cells", "experiment": "Test Example 1: bone differentiation of C2C12 cells, alkaline phosphatase (ALP) staining and ALP activity", "settings": "9 days", "experimental": "After the respective cells were cultured for 9 days, a degree of progression of bone differentiation was examined by staining with an alkaline phosphatase (ALP) staining kit #85-3R (Sigma). Quantitative analysis of an ALP activity was conducted according to the Fujii et al. method (e.g., see Fujii M et al, “Mol Biol Cell.” published by American Society for Cell Biology (U.S.A.), 1999, vol. 10, p. 3801-3813] by using a Sigma Fast p-nitrophenyl phosphate tablet set. A protein concentration of each extract was measured by a DC protein assay (Bio-Rad) using a bovine serum albumin as a standard substance."}, "[4]": {"tested_on": "Human mesenchymal stem cells (hMSCs)", "experiment": "Test Example 2: ALP activity of human mesenchymal stem cells", "settings": "serum-free medium, compound A 1 μM with rhBMP-4 50 ng/ml", "experimental": "as §1, with “After the respective cells were cultured for 9 days, a degree of progression of bone differentiation was examined by staining with an alkaline phosphatase (ALP) staining kit #85-3R (Sigma). […] Quantitative” for “Quantitative”"}}, "data": [{"smiles": "NC(=O)c1ccc(-c2nc(-c3ccc4c(c3)OCO4)c(-c3ccccn3)[nH]2)cc1", "note": "[compound A, 4-(4-benzo[1,3]dioxol-5-yl-5-pyridin-2-yl-1H-imidazol-2-yl)benzamide]", "values": [{"measurement": "activity to enhance the acceleration of osteogenesis (ALP staining / ALP activity) as a function of FBS concentration", "setting": "C2C12 cells [1]", "value": "decreased with the increase in FBS concentration"}, {"measurement": "calcium accumulation induced with rhBMP-4 (von Kossa staining)", "setting": "[2]", "value": "further enhanced"}, {"measurement": "activity of accelerating bone differentiation by stimulation of rhBMP-4 (ALP staining / ALP activity)", "setting": "C2C12 cells [3]; compound A 1 μM with rhBMP-4 50 ng/ml, 5% fetal bovine serum", "value": "enhanced"}, {"measurement": "activity of accelerating bone differentiation of C2C12 cells (ALP staining)", "setting": "C2C12 cells [3]; compound A (1 μM) alone, without rhBMP-4, 5% fetal bovine serum", "value": "not observed"}, {"measurement": "increase in ALP activity induced with rhBMP-4", "setting": "[4]", "value": "further enhanced"}]}]}
